Results: patent US8304443B2, “Indazole derivatives” (Asahi Kasei Pharma Corporation, priority 2008, dated 2012)
Converted amounts (≈) assume the structure as drawn.

What was measured:
[1] = target: T1, human β1 adrenergic receptor (Homo sapiens, UniProt P08588); test: Test example 2-B: human β1 adrenergic receptor agonist activity; type: cell-based; details: 0.5 h; read-out: β1 receptor I.A.
T1 construct: expressed in transfected cells; host or cells: CHO (Chinese hamster ovary) cells, pcDNA3

[2] = Test example 14: stability in phosphate buffer solution having pH 6.8; type: physicochemical; details: for HPLC area percentage at 24 hours after the filtration / HPLC area percentage at 48 hours after the filtration / HPLC area percentage right after the filtration: phosphate buffer solution pH 6.8; for stability in phosphate buffer solution pH 6.8 (finding): up to 48 hours
Method: (§1) Test compound is prepared to saturation state in pure water. The resulting solution is shaken at room temperature for 1 hour. To a filter tube, the entire solution obtained after the shaking is transferred and is subjected to centrifugal filtration at room temperature. The filtrate is analyzed by HPLC right after the filtration, 24 hours, and 48 hours after the filtration. Then, by using a calibration curve, stability of the test compound is obtained from the peak area value.
Except that pure water is replaced with phosphate buffer solution having pH 6.8, the test is carried out in the same method as Test example 13 to obtain the stability of the test compound.

[3] = Test example 12: solubility test in physiological saline; type: physicochemical; details: saline or isotonic, thermodynamic from solid, 37° C., prepared at 1000 μg/mL
Method: 500 μg of the test compound is precisely weighed, and then added with hydrochloric acid buffer solution having pH 1.2 until the concentration of 1000 μg/mL is obtained. The […] is shaken at 37° C. for 1 hour. To a filter tube, the entire solution obtained after the shaking is transferred and is subjected to centrifugal filtration at room temperature. The filtrate is analyzed by HPLC, and by using a calibration curve, saturation solubility of the test compound is obtained from the peak area value.
Except that the hydrochloric acid buffer solution having pH 1.2 is replaced with physiological saline, the test is carried out in the same method as Test example 11 to obtain the solubility of the test compound.

[4] = system: rat under pentobarbital anesthesia; test: Test example 9: effect on blood pressure and heart rate of a rat under pentobarbital anesthesia; type: in vivo; details: male SD rat, 3 mg/kg intravenous bolus; greatest change of mean blood pressure relative to before administration; mean ± standard deviation
Method: After measuring blood pressure and heart rate of a rat under pentobarbital anesthesia, an effect of intravenous bolus administration of a test compound on blood pressure and heart rate can be determined. To a male SD rat (Japan SLC Inc.), sodium pentobarbital (Tokyo Chemical Industry Co., Ltd.) is intraperitoneally administered for induction of anesthesia (50 mg/kg). As maintenance anesthetics, sodium pentobarbital is subcutaneously administered (25 mg/kg). Left femoral vein is exposed and stripped, and then a polyethylene tube SP10 (connected to a three-way stopcock via ¼ vein needle) which has been filled with physiological saline is inserted and left in the vein.
Left medial femoral region is cut to expose and strip the femoral artery, and then a polyethylene tube (SP31, connected to a three-way stopcock via 22 G injection needle by TERUMO Corporation) which has been filled with heparin physiological saline is inserted and connected to a pressure transducer. Blood pressure is measured from the pressure transducer by using a modified pressure amplifier (AP-641 G, Nihon Kohden Corporation). Heart rate is measured by using the Heart rate Counter (AT-601 g, Nihon Kohden Corporation) while having the pulse wave of the blood pressure as a trigger. The blood pressure, mean blood pressure and heart rate are transmitted to the data recorder for recordation. In addition, the mean blood pressure is recorded using a modified pressure amplifier (AP-641 G) according to the equation of {diastolic blood pressure+(systolic blood pressure−diastolic blood pressure)/3}.
Blood pressure and heart rate measurement is started, and after confirming that each value remains almost constant, the test compound (3 mg/kg) is administered to the left femoral vein for 30 seconds. Specifically, the test compound with 3 mg/mL concentration is bolus administered at the administration dose of 1 mL/kg. Relative value (%) at each time point compared to the mean blood pressure and the heart rate before the administration is obtained for each individual. […]

[5] = Test example 13: stability test in pure water; type: physicochemical; details: for stability in pure water (finding): up to 48 hours
Method: as §1
Standard solution is prepared by precisely weighing each test compound and fully dissolving it in pure water. Calibration curve is established by having the concentration of the standard solution as a horizontal axis and the HPLC area value at the corresponding concentration as a vertical axis.
As a separation column, YMC-Pack C18 (4.6 mm×150 mm, manufactured by YMC) is used. Detection is made at UV-254 nm and the temperature inside the column is 40° C. Condition for elution is as follows; with flow rate of 1 ml/minute, solution A as a solvent=water [comprising 0.1% (v/v) acetic acid] and solution B=acetonitrile are used, and from minute 0 to minute 20, 5 to 98% (v/v) linear gradient of solution B is applied, followed by elution with 98% of solution B until minute 25 and elution with 5% of solution B from minute 25.01 to minute 35.

[6] = target: T2, human β3 adrenergic receptor (Homo sapiens, UniProt P13945); test: Test example 1-B: human β3 adrenergic receptor agonist activity (cAMP-Screen, 96-well); type: cell-based; details: for Emax: 0.5 h, read-out: β3 receptor I.A.; for EC50: Table 4, Test example 1-B, CHO cells with human β3 gene, cAMP
T2 construct: used as a probe to obtain the full length human β3 gene from a human genomic library (Clonetech); expressed in transfected cells; host or cells: CHO (Chinese hamster ovary) cells, pcDNA3, geneticin-selected
Method: Human β3 adrenergic receptor agonist activity is determined using CHO (Chinese hamster ovary) cells transfected with pcDNA3 (Invitrogen) to which human β3 gene has been inserted. […] This human β3 cDNA fragment is used as a probe to obtain the full length human β3 gene from a human genomic library (Clonetech). The above cells are cultured in a Ham's F-12 medium containing 10% fetal bovine serum and 400 μg/mL geneticin (Invitrogen). After seeding these cells into a 96-well plate (2×10^4 cells/well) and culturing them for about 20 hours, they are allowed to stand in a serum-free Ham's F-12 medium (80 μL) for 15 minutes. The test compound is first dissolved in DMSO, serially diluted with Ham's F-12 comprising 100 mmol/L HEPES and 1 mmol/L isobutylmethylxanthine, and then 20 μL of the solution is added to the cells. After the cells are cultured for 30 minutes, the medium is removed, followed by addition of assay/lysis buffer (0.1 ml) included in cAMP-Screen Kit (manufactured by Applied Biosystems). The cells are incubated for 30 minutes at 37° C. The resulting cell lysate is determined to cAMP quantitation by using cAMP-Screen kit described above.

[7] = system: urinary bladder smooth muscle isolated from common marmoset; test: Test example 7: relaxant activity on urinary bladder smooth muscle isolated from common marmoset; details: strips contracted by 40 mmol/L KCl, papaverine 10^−4 mol/L relaxation = 100%
Method: Specifically, a common marmoset (CLEA Japan, Inc.) is bled to exsanguinated death, and then the urinary bladder is taken out of the marmoset via laparotomy. […] A resting tension of 1 g is applied to the strips, which is then equilibrated for more than 30 minutes. […] The final concentration is 10^−9, 10^−8, 10^−7, 10^−8, 10^−5 and 10^−4 mol/L. Upon the completion of the relaxation response to the test compound at the highest concentration, papaverine with final concentration of 10^−4 mol/L is added and the maximum relaxation response is obtained for each strip. This relaxation response is taken as 100%, and the relaxation ratio (%) is obtained for the test compound at the concentrations of 10^−5 and 10^−4 mol/L.

[8] = target: T3, human β2 adrenergic receptor (Homo sapiens, UniProt P07550); test: Test example 3-B: human β2 adrenergic receptor agonist activity; type: cell-based; details: read-out: β2 receptor I.A.
T3 construct: expressed in transfected cells; host or cells: CHO (Chinese hamster ovary) cells, pcDNA3
T3 sequence (P07550 whole entry): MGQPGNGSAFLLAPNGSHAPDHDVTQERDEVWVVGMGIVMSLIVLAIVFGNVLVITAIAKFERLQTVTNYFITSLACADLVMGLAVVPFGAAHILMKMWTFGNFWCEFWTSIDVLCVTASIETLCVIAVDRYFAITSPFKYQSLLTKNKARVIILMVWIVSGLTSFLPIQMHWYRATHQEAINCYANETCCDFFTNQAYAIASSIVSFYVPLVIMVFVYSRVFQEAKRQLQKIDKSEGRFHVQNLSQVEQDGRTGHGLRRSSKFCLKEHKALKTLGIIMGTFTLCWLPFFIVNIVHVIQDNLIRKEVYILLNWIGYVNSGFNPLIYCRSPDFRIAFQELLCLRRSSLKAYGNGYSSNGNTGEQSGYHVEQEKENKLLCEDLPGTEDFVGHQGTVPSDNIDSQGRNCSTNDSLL

T2 sequence (P13945 whole entry): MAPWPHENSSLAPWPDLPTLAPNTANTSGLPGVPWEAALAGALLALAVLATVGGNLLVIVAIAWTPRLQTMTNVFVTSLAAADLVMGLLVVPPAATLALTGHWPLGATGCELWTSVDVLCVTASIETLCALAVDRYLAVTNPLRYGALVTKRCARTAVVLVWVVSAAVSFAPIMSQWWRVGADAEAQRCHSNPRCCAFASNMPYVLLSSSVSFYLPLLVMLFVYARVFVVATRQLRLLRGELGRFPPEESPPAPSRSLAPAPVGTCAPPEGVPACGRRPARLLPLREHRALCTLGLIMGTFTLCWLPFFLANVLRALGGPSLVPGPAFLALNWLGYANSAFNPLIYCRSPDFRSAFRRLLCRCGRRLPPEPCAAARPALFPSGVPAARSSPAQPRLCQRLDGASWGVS
T1 sequence (P08588 whole entry): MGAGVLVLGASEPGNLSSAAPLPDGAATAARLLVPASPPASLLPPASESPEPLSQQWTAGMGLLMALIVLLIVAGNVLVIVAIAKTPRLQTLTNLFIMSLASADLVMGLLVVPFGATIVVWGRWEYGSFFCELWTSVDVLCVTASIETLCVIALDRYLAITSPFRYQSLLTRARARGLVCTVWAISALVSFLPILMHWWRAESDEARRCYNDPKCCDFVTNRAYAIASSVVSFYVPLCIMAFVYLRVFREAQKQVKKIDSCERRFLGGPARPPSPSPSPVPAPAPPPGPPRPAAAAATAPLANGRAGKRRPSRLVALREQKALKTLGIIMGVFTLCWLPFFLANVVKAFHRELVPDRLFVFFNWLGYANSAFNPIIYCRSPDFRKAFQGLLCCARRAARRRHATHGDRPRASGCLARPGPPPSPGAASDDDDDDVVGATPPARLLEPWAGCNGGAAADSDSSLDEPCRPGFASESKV

Emax [1] [%] | HPLC area percentage at 24 hours after the filtration [2] [%] | HPLC area percentage at 48 hours after the filtration [2] [%] | HPLC area percentage right after the filtration [2] [%] | stability in phosphate buffer solution pH 6.8 (finding) [2] | solubility at 1 h [3] [mg/mL] | HPLC area percentage at 24 hours after the filtration [5] [%] | HPLC area percentage at 48 hours after the filtration [5] [%] | HPLC area percentage right after the filtration [5] [%] | stability in pure water (finding) [5] | Emax [6] [%] | EC50 [6] [µM] | Emax [8] [%] | SMILES | increase in MBP (%) [4] [%] | relaxant activity (%) 10^−4 M [7] [%] | relaxant activity (%) 10^−5 M [7] [%]
10 | 95.5 | 95.5 | 95.7 | stable | 0.999 (≈ 2320 µM) | 95.6 | 95.6 | 95.7 | stable | 77 | 0.015 | 6.3 | CS(=O)(=O)Nc1cccc([C@@H](O)CNCCOc2ccc3c(C4CC4)n[nH]c3c2)c1 [Example 1, (R)—N-(3-(1-Hydroxy-2-(2-(3-cyclopropylindazol-6-yloxy)ethylamino)ethyl)phenyl)methanesulfonamide] | 2.7 ± 0.5 | 55.7 | 38.6
9.9 | 93.3 | 94.5 | 95.1 | stable | 0.999 (≈ 2250 µM) | 95.2 | 95.0 | 95.2 | stable | 68 | 0.056 | 3.8 | CS(=O)(=O)Nc1cccc([C@@H](O)CNCCOc2ccc3c(C4CCC4)n[nH]c3c2)c1 [Example 2, (R)—N-(3-(1-Hydroxy-2-(2-(3-cyclobutylindazol-6-yloxy)ethylamino)ethyl)phenyl)methanesulfonamide] | 4.0 ± 2.6 | 65.6 | 50.8
